Here are results for 2 compounds from ChEMBL document CHEMBL1155067, “Carbonic anhydrase inhibitors: thioxolone versus sulfonamides for obtaining isozyme-selective inhibitors?” (Bioorg Med Chem Lett, 2008).

For assay [1], the target named is Carbonic anhydrase 7 (Homo sapiens) (UniProt P43166).
The target in assay [2] is Carbonic anhydrase 4 (Homo sapiens) (UniProt P22748).
Description: Inhibition of human recombinant carbonic anhydrase 4 by stopped flow CO2 hydration method
Assay [3] concerns the target Carbonic anhydrase 1 (Homo sapiens) (UniProt P00915).
The target in assay [4] is Carbonic anhydrase 9 (Homo sapiens) (UniProt Q16790).
Description: Inhibition of human recombinant carbonic anhydrase 9 catalytic domain by stopped flow CO2 hydration method
The target in assay [5] is Carbonic anhydrase 12 (Homo sapiens) (UniProt O43570).
Description: Inhibition of human recombinant carbonic anhydrase 12 catalytic domain by stopped flow CO2 hydration method
For assay [6], the target named is Carbonic anhydrase 14 (Homo sapiens) (UniProt Q9ULX7).
Description: Inhibition of human recombinant carbonic anhydrase 14 by stopped flow CO2 hydration method
Assay [7] has as its target Carbonic anhydrase 5B, mitochondrial (Homo sapiens) (UniProt Q9Y2D0).
Description: Inhibition of human recombinant carbonic anhydrase 5B by stopped flow CO2 hydration method
Assay [8] concerns the target Carbonic anhydrase 13 (Mus musculus) (UniProt Q9D6N1). The assay can be described thus: Inhibition of mouse recombinant carbonic anhydrase 13 by stopped flow CO2 hydration method.
Assay [9] addresses T1, Carbonic anhydrase 15 (Mus musculus) (UniProt Q99N23).
T1 sequence (whole entry): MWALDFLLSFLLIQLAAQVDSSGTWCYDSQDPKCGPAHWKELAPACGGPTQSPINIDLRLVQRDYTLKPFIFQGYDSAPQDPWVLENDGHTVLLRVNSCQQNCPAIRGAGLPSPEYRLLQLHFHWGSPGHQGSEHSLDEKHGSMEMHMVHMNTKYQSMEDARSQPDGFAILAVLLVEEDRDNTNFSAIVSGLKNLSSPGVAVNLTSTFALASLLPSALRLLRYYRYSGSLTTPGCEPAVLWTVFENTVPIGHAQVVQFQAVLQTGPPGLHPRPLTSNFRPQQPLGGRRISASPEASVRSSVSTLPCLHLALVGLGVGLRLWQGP
The assay can be described thus: Inhibition of mouse recombinant carbonic anhydrase 15 by stopped flow CO2 hydration method.

For assay [10], the target named is Carbonic anhydrase 6 (Homo sapiens) (UniProt P23280).
Description: Inhibition of human recombinant carbonic anhydrase 6 by stopped flow CO2 hydration method
For assay [11], the target named is T2, Carbonic anhydrase 2 (Homo sapiens, UniProt P00918).
In assay [12] the target is Carbonic anhydrase 5A, mitochondrial (Homo sapiens) (UniProt P35218).
Description: Inhibition of human recombinant carbonic anhydrase 5A by stopped flow CO2 hydration method
For assay [13], the target named is Carbonic anhydrase 3 (Homo sapiens) (UniProt P07451).
Description: Inhibition of human recombinant carbonic anhydrase 3 by stopped flow CO2 hydration method
Assay [14] concerns the target T2, Carbonic anhydrase 2. The assay can be described thus: Inhibition of human recombinant carbonic anhydrase 2 by oxygen-18 isotope exchange assay.
Assay [15] concerns the target T2, Carbonic anhydrase 2. The assay can be described thus: Inhibition of human recombinant carbonic anhydrase 2 assessed as activity of carbonic anhydrase 2 esterase activity against 4-nitrophenyl acetate.

Sequence of Carbonic anhydrase 7 (Homo sapiens) (P43166 whole entry): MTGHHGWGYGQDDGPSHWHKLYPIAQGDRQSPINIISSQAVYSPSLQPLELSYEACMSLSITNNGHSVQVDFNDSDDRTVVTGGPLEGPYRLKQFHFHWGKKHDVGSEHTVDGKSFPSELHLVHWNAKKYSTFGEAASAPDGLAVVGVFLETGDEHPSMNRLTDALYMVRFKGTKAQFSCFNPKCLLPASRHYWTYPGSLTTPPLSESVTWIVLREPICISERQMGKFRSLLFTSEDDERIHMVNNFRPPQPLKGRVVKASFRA
Sequence of Carbonic anhydrase 13 (Mus musculus) (Q9D6N1 whole entry, looked up): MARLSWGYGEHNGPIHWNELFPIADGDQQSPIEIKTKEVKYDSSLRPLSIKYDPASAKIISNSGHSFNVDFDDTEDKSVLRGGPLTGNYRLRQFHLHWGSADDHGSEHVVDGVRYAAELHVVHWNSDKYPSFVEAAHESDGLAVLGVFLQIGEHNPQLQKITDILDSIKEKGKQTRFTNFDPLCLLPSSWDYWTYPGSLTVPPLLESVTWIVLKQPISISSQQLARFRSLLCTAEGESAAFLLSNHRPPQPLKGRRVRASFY
Sequence of Carbonic anhydrase 12 (Homo sapiens) (O43570 whole entry): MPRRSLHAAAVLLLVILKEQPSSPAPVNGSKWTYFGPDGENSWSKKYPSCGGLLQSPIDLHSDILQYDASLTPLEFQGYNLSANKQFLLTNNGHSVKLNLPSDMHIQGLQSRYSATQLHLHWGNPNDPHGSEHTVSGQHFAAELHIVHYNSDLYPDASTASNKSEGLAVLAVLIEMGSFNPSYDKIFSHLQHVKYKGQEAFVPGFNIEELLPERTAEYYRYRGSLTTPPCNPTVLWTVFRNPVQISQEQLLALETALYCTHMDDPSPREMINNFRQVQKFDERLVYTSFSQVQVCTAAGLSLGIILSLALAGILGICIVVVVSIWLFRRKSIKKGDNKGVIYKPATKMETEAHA
Sequence of Carbonic anhydrase 14 (Homo sapiens) (Q9ULX7 whole entry): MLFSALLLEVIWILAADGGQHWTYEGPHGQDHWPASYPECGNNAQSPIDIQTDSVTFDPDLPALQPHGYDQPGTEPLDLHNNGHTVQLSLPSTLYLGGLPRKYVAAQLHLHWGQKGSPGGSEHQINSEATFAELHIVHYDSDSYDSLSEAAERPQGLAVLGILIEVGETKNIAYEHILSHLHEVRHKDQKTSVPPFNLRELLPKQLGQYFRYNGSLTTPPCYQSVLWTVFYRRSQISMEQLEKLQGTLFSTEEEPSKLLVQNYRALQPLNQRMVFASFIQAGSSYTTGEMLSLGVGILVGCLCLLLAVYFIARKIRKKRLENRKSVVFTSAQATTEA
Sequence of Carbonic anhydrase 1 (Homo sapiens) (P00915 2-261 limits assumed): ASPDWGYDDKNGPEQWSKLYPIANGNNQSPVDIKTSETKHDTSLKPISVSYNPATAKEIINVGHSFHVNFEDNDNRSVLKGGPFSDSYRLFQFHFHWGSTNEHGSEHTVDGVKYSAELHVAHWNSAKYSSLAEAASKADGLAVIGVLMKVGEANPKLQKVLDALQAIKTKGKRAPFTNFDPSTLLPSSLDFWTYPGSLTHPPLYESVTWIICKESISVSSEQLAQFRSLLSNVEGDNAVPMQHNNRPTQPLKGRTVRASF
Sequence of Carbonic anhydrase 5A, mitochondrial (Homo sapiens) (P35218 whole entry): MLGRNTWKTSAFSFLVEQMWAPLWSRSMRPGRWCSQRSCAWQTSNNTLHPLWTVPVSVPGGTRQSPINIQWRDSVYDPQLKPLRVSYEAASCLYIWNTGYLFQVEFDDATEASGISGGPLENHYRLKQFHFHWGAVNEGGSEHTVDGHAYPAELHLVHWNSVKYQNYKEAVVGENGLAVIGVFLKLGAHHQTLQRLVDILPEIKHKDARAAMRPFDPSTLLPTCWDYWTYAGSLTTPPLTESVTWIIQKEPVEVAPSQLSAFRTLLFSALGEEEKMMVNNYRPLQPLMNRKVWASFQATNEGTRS
Sequence of Carbonic anhydrase 6 (Homo sapiens) (P23280 whole entry): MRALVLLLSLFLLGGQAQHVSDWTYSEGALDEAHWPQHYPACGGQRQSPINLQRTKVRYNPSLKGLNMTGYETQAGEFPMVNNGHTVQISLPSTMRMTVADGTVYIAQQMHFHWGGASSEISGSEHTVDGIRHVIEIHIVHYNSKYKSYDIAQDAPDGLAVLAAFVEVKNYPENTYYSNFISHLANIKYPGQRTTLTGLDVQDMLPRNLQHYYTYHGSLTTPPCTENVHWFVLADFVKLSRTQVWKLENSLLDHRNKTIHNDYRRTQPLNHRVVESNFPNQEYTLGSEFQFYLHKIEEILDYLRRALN
Sequence of Carbonic anhydrase 3 (Homo sapiens) (P07451 whole entry): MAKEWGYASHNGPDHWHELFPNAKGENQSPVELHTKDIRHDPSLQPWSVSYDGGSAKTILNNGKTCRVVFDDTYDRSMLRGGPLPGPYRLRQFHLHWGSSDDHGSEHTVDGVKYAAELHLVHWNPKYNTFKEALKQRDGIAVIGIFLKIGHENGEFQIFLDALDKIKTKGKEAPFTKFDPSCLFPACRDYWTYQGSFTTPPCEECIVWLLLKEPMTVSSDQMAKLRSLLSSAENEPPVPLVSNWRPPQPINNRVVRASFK
Sequence of Carbonic anhydrase 5B, mitochondrial (Homo sapiens) (Q9Y2D0 whole entry): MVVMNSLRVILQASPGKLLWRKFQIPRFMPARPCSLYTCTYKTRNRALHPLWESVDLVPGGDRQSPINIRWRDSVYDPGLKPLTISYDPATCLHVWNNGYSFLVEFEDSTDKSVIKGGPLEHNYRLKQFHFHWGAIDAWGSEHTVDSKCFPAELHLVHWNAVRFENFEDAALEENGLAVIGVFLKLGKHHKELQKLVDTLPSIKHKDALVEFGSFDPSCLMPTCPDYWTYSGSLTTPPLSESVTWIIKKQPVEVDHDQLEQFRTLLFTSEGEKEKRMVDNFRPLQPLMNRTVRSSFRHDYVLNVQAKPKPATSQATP
Sequence of Carbonic anhydrase 4 (Homo sapiens) (P22748 whole entry): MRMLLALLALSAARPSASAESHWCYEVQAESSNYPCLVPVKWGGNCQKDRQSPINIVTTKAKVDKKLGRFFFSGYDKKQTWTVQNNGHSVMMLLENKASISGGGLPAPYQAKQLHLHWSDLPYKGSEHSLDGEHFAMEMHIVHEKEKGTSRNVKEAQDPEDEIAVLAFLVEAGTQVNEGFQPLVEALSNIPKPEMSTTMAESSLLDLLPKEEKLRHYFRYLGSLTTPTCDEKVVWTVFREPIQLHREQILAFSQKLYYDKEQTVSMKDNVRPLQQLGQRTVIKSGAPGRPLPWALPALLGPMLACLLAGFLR

What is called Ki is the dissociation constant of the complex between target and ligand, obtained from inhibition or displacement. In the case of `NS(=O)(=O)c1cc(Cl)c(O)c(Cl)c1`, the Kinact in [1] is 0.072 µM; in [2] it was 0.072 µM; in assay [3] it was 7.5 µM; in assay [4], 0.081 µM; in assay [5], 0.076 µM; in [6], 8.12 µM. Besides, the Kinact in [7] was 0.61 µM; in assay [8], 6.53 µM; in assay [10], 6.17 µM; in [11], 0.058 µM; in assay [13], 78.6 µM. In addition, the values for the Ki in assay [9] and in assay [12] were 780 nM and 620 nM, respectively.
For orientation: IC50 means the midpoint of a concentration-inhibition curve. With `O=c1oc2cc(O)ccc2s1` [TIOXOLONE], the Kinact in assay [1] turned out to be 5.73 µM; in assay [2], 8.41 µM; in assay [3], 0.091 µM; in assay [4] it was 6.67 µM; in assay [5], 7.79 µM; in assay [14], 314 µM. Further, the Kinact in assay [6] was 8.59 µM; in assay [7], 9.04 µM; in [8], 8.23 µM; in assay [10], 4.93 µM; in assay [11] it was 6.82 µM; in assay [13], 6.56 µM. For the same compound, the Ki in [9] was 7870 nM; in [12] it was 7060 nM. Further, in assay [15], the IC50 is 1770 nM.
